We go through 12 compounds from ChEMBL document CHEMBL5724914, “Linking interpersonal differences in gut microbiota composition and drug biotransformation activity” (2024).

SMILES strings stand for the structures.

Data set [1] is described as follows: The drug is tested on WLS-090 corresponding to human gut metagenome with ENA study accession number: PRJEB37062 and ENA sample accession number: ERS12561753 for biotransformation under anaerobic condition. The drug concentrations were measured over 9 timepoints collected between 0 and 24 hours of incubation by liquid-chromatography-coupled mass spectrometry (LC–MS). The settings on record: 2 µM.

The conditions of data set [2]: human gut metagenome, 24 h, 2 µM.
The conditions of data set [3]: human gut metagenome, 24 h, 2 µM. The source holds these as a separate data set.
The nature of data set [4]: The drug is tested on WLS-098 corresponding to human gut metagenome with ENA study accession number: PRJEB37062 and ENA sample accession number: ERS12561754 for biotransformation under anaerobic condition. The drug concentrations were measured over 9 timepoints collected between 0 and 24 hours of incubation by liquid-chromatography-coupled mass spectrometry (LC–MS). The settings on record: 2 µM.

The nature of data set [5]: The drug is tested on WLS-370 corresponding to human gut metagenome with ENA study accession number: PRJEB37062 and ENA sample accession number: ERS12561793 for biotransformation under anaerobic condition. The drug concentrations were measured over 9 timepoints collected between 0 and 24 hours of incubation by liquid-chromatography-coupled mass spectrometry (LC–MS). The settings on record: 2 µM.

The conditions of data set [6]: human gut metagenome, 24 h, 2 µM. This is another data set of the same source.
For data set [7] the following is noted: human gut metagenome, 24 h, 2 µM. This is another data set of the same source.
The conditions of data set [8]: human gut metagenome, 24 h, 2 µM. This is another data set of the same source.
A short description of data set [9]: The drug is tested on WLS-082 corresponding to human gut metagenome with ENA study accession number: PRJEB37062 and ENA sample accession number: ERS12561751 for biotransformation under anaerobic condition. The drug concentrations were measured over 9 timepoints collected between 0 and 24 hours of incubation by liquid-chromatography-coupled mass spectrometry (LC–MS). The conditions noted are these: 2 µM.
Further: call rule not given here.

In the case of `CN(C)CCOC(C)(c1ccccc1)c1ccccn1.O=C(O)CCC(=O)O` (stereo not drawn) [DOXYLAMINE SUCCINATE], the “Bacterial Biotransformation” value in data set [1], in data set [2], in [3], in data set [4], in data set [5] and in data set [6] was “Compound NOT metabolized” in each case. Also, the “Bacterial Biotransformation” value in data set [7], in data set [8] and in data set [9] was “Compound NOT metabolized” each time.
Regarding `CCOc1cc(CC(=O)N[C@@H](CC(C)C)c2ccccc2N2CCCCC2)ccc1C(=O)O` [REPAGLINIDE], the “Bacterial Biotransformation” value in data set [1], in [2], in [3], in data set [4], in data set [5] and in data set [6] was “Compound metabolized” in each case. Further, the “Bacterial Biotransformation” value in [7], in [8] and in data set [9] was “Compound metabolized” throughout.
As for `CC[C@@]1(O)C(=O)OCc2c1cc1n(c2=O)Cc2cc3c(CN(C)C)c(O)ccc3nc2-1` [TOPOTECAN], the “Bacterial Biotransformation” value in data set [1], in data set [2], in data set [3], in data set [4], in [5] and in data set [6] was “Compound NOT metabolized” each time. Moreover, the “Bacterial Biotransformation” value in data set [7], in [8] and in data set [9] was “Compound NOT metabolized” in each case.
For the compound `CC(C)(C)NC(=O)[C@H]1CC[C@H]2[C@@H]3CC[C@H]4NC(=O)C=C[C@]4(C)[C@H]3CC[C@]12C` [FINASTERIDE], the “Bacterial Biotransformation” value in [1], in data set [2], in data set [3], in data set [4], in [5] and in [6] was “Compound metabolized” in each case. Moreover, the “Bacterial Biotransformation” value in [7], in [8] and in [9] was “Compound metabolized” each time.
For the compound `COc1ccc2c(c1)c(CC(=O)O)c(C)n2C(=O)c1ccc(Cl)cc1` [INDOMETHACIN], the “Bacterial Biotransformation” value in data set [1], in data set [2], in [3], in [4], in [5] and in [6] was “Compound metabolized” in each case. Also, the “Bacterial Biotransformation” value in data set [7] is recorded as “Compound metabolized”; in data set [8] it was “Compound metabolized”; in data set [9], “Compound NOT metabolized”.
In the case of `CN(C)C(=O)Oc1cccc([N+](C)(C)C)c1.[Br-]` [NEOSTIGMINE BROMIDE], the “Bacterial Biotransformation” value in data set [1], in data set [2], in data set [3], in [4], in data set [5] and in [6] was “Compound NOT metabolized” in each case. Further, the “Bacterial Biotransformation” value in [7], in data set [8] and in data set [9] was “Compound NOT metabolized” throughout.
On to `CN[C@H]1CC[C@@H](c2ccc(Cl)c(Cl)c2)c2ccccc21` [SERTRALINE], for which the “Bacterial Biotransformation” value in [1] is “Compound metabolized”; in data set [2], “Compound NOT metabolized”; in data set [3], “Compound NOT metabolized”; in [4], “Compound metabolized”; in [5], “Compound metabolized”; in [6], “Compound metabolized”. The “Bacterial Biotransformation” value in data set [7], in [8] and in data set [9] was “Compound metabolized” in each case.
Consider `COc1ccc([C@@H]2Sc3ccccc3N(CCN(C)C)C(=O)[C@@H]2OC(C)=O)cc1` [DILTIAZEM], for which the “Bacterial Biotransformation” value in data set [1], in data set [2], in [3], in data set [4], in data set [5] and in data set [6] was “Compound metabolized” each time. In addition, the “Bacterial Biotransformation” value in data set [7] is reported as “Compound metabolized”; in data set [8] it was “Compound NOT metabolized”; in data set [9] it was “Compound metabolized”.
`O=C1CN2Cc3c(ccc(Cl)c3Cl)N=C2N1` [ANAGRELIDE]: the “Bacterial Biotransformation” value in data set [1] is given as “Compound metabolized”; in data set [2] it was “Compound metabolized”; in data set [3], “Compound metabolized”; in data set [4], “Compound metabolized”; in data set [5], “Compound NOT metabolized”; in [6] it was “Compound metabolized”. The entries for the “Bacterial Biotransformation” value in data set [7], in data set [8] and in [9] were “Compound metabolized”, “Compound NOT metabolized” and “Compound metabolized”, respectively.
On to `CN1CCN2c3ccccc3Cc3ccccc3C2C1` (stereo not drawn) [MIANSERIN], for which the “Bacterial Biotransformation” value is listed as “Compound metabolized” in [1]; “Compound NOT metabolized” in [2]; “Compound NOT metabolized” in [3]; “Compound metabolized” in data set [4]; “Compound NOT metabolized” in data set [5]; “Compound NOT metabolized” in data set [6]. For the same compound, the entries for the “Bacterial Biotransformation” value in data set [7], in [8] and in data set [9] were “Compound metabolized”, “Compound metabolized” and “Compound NOT metabolized”, respectively.
For `CC12CC3CC(C)(C1)CC(N)(C3)C2` [MEMANTINE], the “Bacterial Biotransformation” value in data set [1] is “Compound metabolized”; in data set [2], “Compound NOT metabolized”; in [3], “Compound NOT metabolized”; in data set [4], “Compound NOT metabolized”; in data set [5], “Compound NOT metabolized”; in [6] it was “Compound NOT metabolized”. In addition, the “Bacterial Biotransformation” value in data set [7], in data set [8] and in data set [9] was “Compound NOT metabolized” throughout.
With `CC(N)C12CC3CC(CC(C3)C1)C2` (stereo not drawn) [RIMANTADINE], the “Bacterial Biotransformation” value in data set [1], in data set [2], in [3], in [4], in data set [5] and in [6] was “Compound NOT metabolized” throughout. Besides, the “Bacterial Biotransformation” value in [7], in data set [8] and in [9] was “Compound NOT metabolized” each time.
